Results on seven compounds are retold here after article PMC6364417, “Kinase inhibitor library screening identifies synergistic drug combinations effective in sensitive and resistant melanoma cells” (Journal of Experimental & Clinical Cancer Research : CR, 2019).

Common to all, as to test: Kinase inhibitor library screening, PrestoBlue cell viability, 1 or 10 μM, 72 h
Data set [1] has as its system 501Mel cells (parental). The conditions noted are these: 72 h. The gist of the method: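 Kinase inhibitors added at two fixed concentrations; 72 h exposure; PrestoBlue readout; % viability vs untreated; n ≥ 2 per line.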
For data set [2], the system named is 501Mel-GP cells (Dabrafenib-resistant). The conditions noted are these: 72 h.
Data set [3] concerns 501Mel-XP cells (Vemurafenib-resistant). Particulars: 72 h.
The test system of data set [4] is A375 cells (parental).
Data set [5] concerns A375-GP cells (Dabrafenib-resistant).
Data set [6] deals with A375-XP cells (Vemurafenib-resistant).
Data set [7] concerns IGR37 cells (parental).
Data set [8] relates to IGR37-GP cells (Dabrafenib-resistant).
Data set [9] relates to IGR37-XP cells (Vemurafenib-resistant).
The mark [10] stands for this setting: IGR37 Parental, 10μΜ, 72 h, in %.

In general, viability refers to a read-out of living cells in per cent, often relative to untreated cells.

As to `CS(=O)(=O)CCNCc1ccc(-c2ccc3ncnc(Nc4ccc(OCc5cccc(F)c5)c(Cl)c4)c3c2)o1.Cc1ccc(S(=O)(=O)O)cc1.Cc1ccc(S(=O)(=O)O)cc1` [Lapatinib Ditosylate (Tykerb)], the “cell viability, 501Mel Parental, 10μΜ” value in data set [1] (501Mel Parental, 10μΜ, in %) was 33.4. The “cell viability, 501Mel GP, 10μΜ” value in data set [2] (501Mel GP, 10μΜ, in %) was determined as 78.0. Further, the “cell viability, 501Mel XP, 1μΜ” value in data set [3] (501Mel XP, 1μΜ, in %) stood at 94.1. Further, the “cell viability, 501Mel XP, 10μΜ” value in data set [3] (501Mel XP, 10μΜ, in %) is on record as -0.129. Besides, in [4] (A375 Parental, 10μΜ, 72 h, in %), the “cell viability, A375 Parental, 10μΜ” value came to 78.4. For the same compound, the “cell viability, A375 GP, 10μΜ” value in data set [5] (A375 GP, 10μΜ, 72 h, in %) worked out at 81.7. The “cell viability, A375 XP, 1μΜ” value in [6] (A375 XP, 1μΜ, 72 h, in %) came out at 114.8. Also, the “cell viability, A375 XP, 10μΜ” value in data set [6] (A375 XP, 10μΜ, 72 h, in %) is given as 72.3. Moreover, the “cell viability, IGR37 Parental, 10μΜ” value in data set [7] (setting [10]) is 92.3. The same compound showed a cell viability, IGR37 GP, 10μΜ in data set [8] (IGR37 GP, 10μΜ, 72 h) of 14%. The compound further displayed a cell viability, IGR37 XP, 10μΜ in [9] (IGR37 XP, 10μΜ, 72 h) of 1.6%.

For the compound `Cc1ccc(F)c(NC(=O)Nc2ccc(-c3cccc4[nH]nc(N)c34)cc2)c1` [Linifanib (ABT-869)], the “Cell viability in kinase inhibitor library screening, 501Mel Parental, 1μΜ” value in data set [1] (501Mel Parental, 1μΜ, in %) came out at 98.1. Also, the “Cell viability in kinase inhibitor library screening, 501Mel GP, 1μΜ” value in data set [2] (501Mel GP, 1μΜ, in %) was found to be 106.7. Also, in data set [2] (501Mel GP, 10μΜ, in %), the “Cell viability in kinase inhibitor library screening, 501Mel GP, 10μΜ” value is 11.3. The “Cell viability in kinase inhibitor library screening, 501Mel XP, 10μΜ” value in data set [3] (501Mel XP, 10μΜ, in %) was 3.8. The “Cell viability in kinase inhibitor library screening, A375 Parental, 10μΜ” value in [4] (A375 Parental, 10μΜ, 72 h) is given as 46.3. Also, in data set [4] (A375 Parental, 1μΜ, 72 h), the “Cell viability in kinase inhibitor library screening, A375 Parental, 1μΜ” value stood at 106.9. The “Cell viability in kinase inhibitor library screening, A375 GP, 1μΜ” value in data set [5] (A375 GP, 1μΜ, 72 h) stood at 102.6. For the same compound, the “Cell viability in kinase inhibitor library screening, A375 GP, 10μΜ” value in data set [5] (A375 GP, 10μΜ, 72 h) is on record as 38.3. In addition, the “Cell viability in kinase inhibitor library screening, A375 XP, 1μΜ” value in data set [6] (A375 XP, 1μΜ, 72 h) is 110.5. Besides, the “Cell viability in kinase inhibitor library screening, A375 XP, 10μΜ” value in [6] (A375 XP, 10μΜ, 72 h) worked out at 59.8. The “Cell viability in kinase inhibitor library screening, IGR37 Parental, 1μΜ” value in data set [7] (IGR37 Parental, 1μΜ, 72 h, in %) is given as 99.9. In [7] (setting [10]), the “Cell viability in kinase inhibitor library screening, IGR37 Parental, 10μΜ” value is 60.3. The compound also registered a Cell viability in kinase inhibitor library screening, IGR37 GP, 10μΜ in [8] (IGR37 GP, 10μΜ, 72 h) of 52.4%. This compound showed a Cell viability in kinase inhibitor library screening, IGR37 XP, 10μΜ in data set [9] (IGR37 XP, 10μΜ, 72 h) of 30.7%. The “Cell viability in kinase inhibitor library screening, IGR37 XP, 1μΜ” value in data set [9] (IGR37 XP, 1μΜ, 72 h, in %) is recorded as 102.6.

As to `C[C@]1(O)C[C@@H](c2nc(-c3ccc4ccc(-c5ccccc5)nc4c3)c3c(N)nccn32)C1` [Linsitinib (OSI-906)], the viability at 1 µM in data set [1] (Homo sapiens, read-out: cell viability, 501Mel Parental, 1μΜ) stood at 70.7%; in [2] (Homo sapiens, read-out: cell viability, 501Mel GP, 1μΜ), 83.6%; in [3] (Homo sapiens, read-out: cell viability, 501Mel XP, 1μΜ), 75.2%; in data set [4] (Homo sapiens, A-375, 72 h, read-out: cell viability, A375 Parental, 1μΜ) it was 84.1%; in [5] (Homo sapiens, A-375, 72 h, read-out: cell viability, A375 GP, 1μΜ), 67.1%; in data set [6] (Homo sapiens, A-375, 72 h, read-out: cell viability, A375 XP, 1μΜ), 77.2%. In addition, the viability at 1 µM in data set [7] (Homo sapiens, IGR-37, 72 h, read-out: cell viability, IGR37 Parental, 1μΜ) amounted to 107%; in data set [8] (Homo sapiens, IGR-37, 72 h, read-out: cell viability, IGR37 GP, 1μΜ) it was 81.6%; in data set [9] (Homo sapiens, IGR-37, 72 h, read-out: cell viability, IGR37 XP, 1μΜ), 66.7%. Besides, the viability at 10 µM was 45.5% in [1] (Homo sapiens, read-out: cell viability, 501Mel Parental, 10μΜ); 54.2% in data set [2] (Homo sapiens, read-out: cell viability, 501Mel GP, 10μΜ); 32.6% in data set [3] (Homo sapiens, read-out: cell viability, 501Mel XP, 10μΜ); 42.3% in data set [4] (Homo sapiens, A-375, 72 h, read-out: cell viability, A375 Parental, 10μΜ); 34.4% in data set [5] (Homo sapiens, A-375, 72 h, read-out: cell viability, A375 GP, 10μΜ); 44.6% in data set [6] (Homo sapiens, A-375, 72 h, read-out: cell viability, A375 XP, 10μΜ). Further, the viability at 10 µM in data set [7] (Homo sapiens, IGR-37, 72 h, read-out: cell viability, IGR37 Parental, 10μΜ) is 67.7%; in data set [8] (Homo sapiens, IGR-37, 72 h, read-out: cell viability, IGR37 GP, 10μΜ), 25.5%; in [9] (Homo sapiens, IGR-37, 72 h, read-out: cell viability, IGR37 XP, 10μΜ), 6.7%.

For `COCCNCc1ccc(-c2cc3nccc(Oc4ccc(NC(=S)NC(=O)Cc5ccc(F)cc5)cc4F)c3s2)nc1` [MGCD-265], the “cell viability (kinase inhibitor library screening)” value in data set [1] (501Mel Parental, 1μΜ) amounted to 104.7%; in [1] (501Mel Parental, 10μΜ), 94.4%; in data set [2] (501Mel GP, 1μΜ) it was 89.8%; in [2] (501Mel GP, 10μΜ) it was 68.8%; in [3] (501Mel XP, 1μΜ), 76.7%; in data set [3] (501Mel XP, 10μΜ), 64.2%. Further, the “cell viability (kinase inhibitor library screening)” value in data set [4] (A375 Parental, 10μΜ, 72 h) came to 83.0%; in [5] (A375 GP, 1μΜ, 72 h), 95.5%; in data set [5] (A375 GP, 10μΜ, 72 h), 85.6%; in data set [6] (A375 XP, 1μΜ, 72 h), 104.8%; in [6] (A375 XP, 10μΜ, 72 h), 98.2%; in data set [7] (IGR37 Parental, 1μΜ, 72 h), 96.8%. Further, the “cell viability (kinase inhibitor library screening)” value in data set [7] (IGR37 Parental, 10μΜ, 72 h) was determined as 92.1%; in [8] (IGR37 GP, 1μΜ, 72 h) it was 91.8%; in data set [8] (IGR37 GP, 10μΜ, 72 h), 78.3%; in data set [9] (IGR37 XP, 1μΜ, 72 h), 91.5%; in data set [9] (IGR37 XP, 10μΜ, 72 h), 50.3%.

For `CN(C[C@@H]1COCCO1)S(=O)(=O)Nc1ccc2ccc3ncc(-c4cnn(C)c4)cc3c(=O)c2c1` [MK-2461], the “cell viability (kinase inhibitor library screening)” value worked out at 102.9% in data set [1] (501Mel Parental, 1μΜ); 83.3% in data set [1] (501Mel Parental, 10μΜ); 90.6% in data set [2] (501Mel GP, 1μΜ); 45.5% in data set [2] (501Mel GP, 10μΜ); 77.5% in [3] (501Mel XP, 1μΜ); 30.0% in data set [3] (501Mel XP, 10μΜ). Also, the “cell viability (kinase inhibitor library screening)” value in data set [4] (A375 Parental, 10μΜ, 72 h) stood at 78.1%; in data set [4] (A375 Parental, 1μΜ, 72 h), 106.3%; in [5] (A375 GP, 10μΜ, 72 h), 78.6%; in data set [6] (A375 XP, 1μΜ, 72 h), 106.1%; in data set [6] (A375 XP, 10μΜ, 72 h), 88.4%; in data set [7] (IGR37 Parental, 1μΜ, 72 h), 103.2%. Also, the “cell viability (kinase inhibitor library screening)” value in [7] (IGR37 Parental, 10μΜ, 72 h) turned out to be 84.5%; in data set [8] (IGR37 GP, 10μΜ, 72 h), 28.3%; in data set [9] (IGR37 XP, 1μΜ, 72 h) it was 99.3%; in data set [9] (IGR37 XP, 10μΜ, 72 h), 6.5%.

Take `O=C(O)[C@]1(Cc2cccc(Nc3nccs3)n2)CC[C@@H](Oc2cccc(Cl)c2F)CC1` [MK-5108 (VX-689)]: the “cell viability (kinase inhibitor library screening)” value was 94.9% in [1] (501Mel Parental, 1μΜ); 74.6% in [1] (501Mel Parental, 10μΜ); 83.4% in data set [2] (501Mel GP, 1μΜ); 63.6% in [2] (501Mel GP, 10μΜ); 72.1% in [3] (501Mel XP, 1μΜ); 52.0% in [3] (501Mel XP, 10μΜ). Besides, the “cell viability (kinase inhibitor library screening)” value is recorded as 56.1% in data set [4] (A375 Parental, 10μΜ, 72 h); 91.4% in [4] (A375 Parental, 1μΜ, 72 h); 92.6% in data set [5] (A375 GP, 1μΜ, 72 h); 63.9% in data set [5] (A375 GP, 10μΜ, 72 h); 99.5% in data set [6] (A375 XP, 1μΜ, 72 h); 68.2% in data set [6] (A375 XP, 10μΜ, 72 h). Further, the “cell viability (kinase inhibitor library screening)” value in data set [7] (IGR37 Parental, 1μΜ, 72 h) was determined as 98.6%; in data set [7] (IGR37 Parental, 10μΜ, 72 h) it was 94.9%; in [8] (IGR37 GP, 10μΜ, 72 h), 93.5%; in data set [9] (IGR37 XP, 1μΜ, 72 h), 100.4%; in data set [9] (IGR37 XP, 10μΜ, 72 h) it was 80.0%.

In the case of `O=C(O)c1ccc(Nc2ncc3c(n2)-c2ccc(Cl)cc2C(c2c(F)cccc2F)=NC3)cc1` [MLN8054], the “cell viability (kinase inhibitor library screening)” value was determined as 86.3% in [1] (501Mel Parental, 1μΜ); 77.0% in [1] (501Mel Parental, 10μΜ); 86.0% in data set [2] (501Mel GP, 1μΜ); 65.6% in [2] (501Mel GP, 10μΜ); 74.5% in data set [3] (501Mel XP, 1μΜ); 59.4% in data set [3] (501Mel XP, 10μΜ). The “cell viability (kinase inhibitor library screening)” value in data set [4] (A375 Parental, 10μΜ, 72 h) is 41.6%; in [4] (A375 Parental, 1μΜ, 72 h), 66.5%; in data set [5] (A375 GP, 1μΜ, 72 h), 70.2%; in [5] (A375 GP, 10μΜ, 72 h), 45.2%; in data set [6] (A375 XP, 1μΜ, 72 h), 75.7%; in data set [6] (A375 XP, 10μΜ, 72 h), 52.2%. Also, the “cell viability (kinase inhibitor library screening)” value is 98.2% in [7] (IGR37 Parental, 1μΜ, 72 h); 64.8% in data set [7] (IGR37 Parental, 10μΜ, 72 h); 94.0% in data set [8] (IGR37 GP, 1μΜ, 72 h); 66.7% in data set [8] (IGR37 GP, 10μΜ, 72 h); 94.1% in [9] (IGR37 XP, 1μΜ, 72 h); 42.0% in data set [9] (IGR37 XP, 10μΜ, 72 h).
